Measured values reported in ChEMBL document CHEMBL3745637, “New hybrid molecules with anticonvulsant and antinociceptive activity derived from 3-methyl- or 3,3-dimethyl-1-[1-oxo-1-(4-phenylpiperazin-1-yl)propan-2-yl]pyrrolidine-2,5-diones” (Bioorg Med Chem, 2016).
Active and inactive are the calls of the source. No cut-off for these calls is given here.

Assays:
[1] = system: Mus musculus; assay: Anticonvulsant activity against Swiss mouse seizure model assessed as protection at 100 mg/kg, ip pretreated for 0.25 hrs by 6 Hz psychomotor seizure test; format: functional, organism-based
[2] = system: Mus musculus; assay: Anticonvulsant activity in ip dosed Swiss mouse assessed as reduction in clonic seizures at 0.5 hrs by subcutaneous pentylenetetrazole seizure test; format: functional
[3] = Protective index, ratio of TD50 for neurotoxicity in ip dosed Swiss mouse to ED50 for anticonvulsant activity in ip dosed MES Swiss mouse model at 0.25 hrs; format: toxicity, organism-based; conditions: in vivo, read-out: Ratio TD50/ED50
[4] = Protective index, ratio of TD50 for neurotoxicity in ip dosed Swiss mouse to ED50 for anticonvulsant activity in ip dosed scPTZ Swiss mouse model at 0.25 hrs; format: toxicity, organism-based; conditions: in vivo, read-out: Ratio TD50/ED50
[5] = Protective index, ratio of TD50 for neurotoxicity in ip dosed Swiss mouse to ED50 for anticonvulsant activity in ip dosed Swiss mouse 6 Hz psychomotor seizure model at 0.25 hrs; format: toxicity, organism-based; conditions: in vivo, read-out: Ratio TD50/ED50
[6] = system: Mus musculus; assay: Anticonvulsant activity in ip dosed Swiss mouse assessed as protection against maximal electroshock-induced seizures at 0.5 hrs; format: functional
[7] = Neurotoxicity in ip dosed Swiss mouse seizure model assessed as motor impairment pretreated for 0.25 hrs measured within 60 s by chimney test; format: toxicity, organism-based; conditions: in vivo
[8] = system: Mus musculus; assay: Antinociceptive activity in ip dosed Swiss mouse assessed as reduction of formalin-induced licking at MES ED50 pretreated for 0.25 hrs measured during 20 to 25 mins; format: functional; set-up: scale not given: the % may be the effect or the level left
[9] = system: Mus musculus; assay: Antinociceptive activity in ip dosed Swiss mouse assessed as reduction of formalin-induced licking at MES ED50 pretreated for 0.25 hrs measured during 15 to 20 mins; format: functional; set-up: scale not given: the % may be the effect or the level left
[10] = system: Mus musculus; assay: Antinociceptive activity in ip dosed Swiss mouse assessed as reduction of formalin-induced licking at MES ED50 pretreated for 0.25 hrs measured during 1 to 5 mins; format: functional; set-up: scale not given: the % may be the effect or the level left
[11] = Protective index, ratio of TD50 for neurotoxicity in ip dosed Swiss mouse to ED50 for anticonvulsant activity in ip dosed Swiss mouse 6 Hz psychomotor seizure model at 0.5 hrs; format: toxicity, organism-based; conditions: in vivo, read-out: Ratio TD50/ED50
[12] = system: Mus musculus; assay: Anticonvulsant activity in Swiss mouse assessed as protection against maximal electroshock-induced seizures at 300 mg/kg, ip pretreated for 0.25 hrs; format: functional, organism-based
[13] = system: Mus musculus; assay: Anticonvulsant activity in Swiss mouse assessed as protection against maximal electroshock-induced seizures at 300 mg/kg, ip pretreated for 0.5 hrs; format: functional, organism-based
[14] = system: Mus musculus; assay: Anticonvulsant activity in Swiss mouse assessed as protection against maximal electroshock-induced seizures at 100 mg/kg, ip pretreated for 0.25 hrs; format: functional, organism-based
[15] = system: Mus musculus; assay: Anticonvulsant activity in Swiss mouse assessed as protection against maximal electroshock-induced seizures at 100 mg/kg, ip pretreated for 2 hrs; format: functional, organism-based
[16] = system: Mus musculus; assay: Anticonvulsant activity in Swiss mouse assessed as reduction in clonic seizures at 100 mg/kg, ip pretreated for 1 hr measured after 30 mins by subcutaneous pentylenetetrazole seizure test; format: functional, organism-based
[17] = system: Mus musculus; assay: Anticonvulsant activity in Swiss mouse assessed as reduction in clonic seizures at 100 mg/kg, ip pretreated for 2 hrs measured after 30 mins by subcutaneous pentylenetetrazole seizure test; format: functional, organism-based
[18] = system: Mus musculus; assay: Anticonvulsant activity against Swiss mouse seizure model assessed as protection at 100 mg/kg, ip pretreated for 0.5 hrs by 6 Hz psychomotor seizure test; format: functional, organism-based
[19] = system: Mus musculus; assay: Anticonvulsant activity in ip dosed Swiss mouse assessed as prolong latency to first seizure episode pretreated for 0.25 hrs measured after 30 mins by subcutaneous pentylenetetrazole seizure test; format: functional, organism-based
[20] = system: Mus musculus; assay: Anticonvulsant activity against ip dosed Swiss mouse seizure model assessed as protection at 0.25 hrs by 6 Hz psychomotor seizure test; format: functional
[21] = system: Mus musculus; assay: Anticonvulsant activity in ip dosed Swiss mouse assessed as protection against maximal electroshock-induced seizures at 0.25 hrs; format: functional
[22] = system: Mus musculus; assay: Anticonvulsant activity in ip dosed Swiss mouse assessed as reduction in clonic seizures at 0.25 hrs by subcutaneous pentylenetetrazole seizure test; format: functional
[23] = system: Mus musculus; assay: Anticonvulsant activity against ip dosed Swiss mouse seizure model assessed as protection at 0.5 hrs by 6 Hz psychomotor seizure test; format: functional
[24] = Neurotoxicity in ip dosed Swiss mouse seizure model assessed as motor impairment pretreated for 0.5 hrs measured within 60 s by chimney test; format: toxicity, organism-based; conditions: in vivo
[25] = Protective index, ratio of TD50 for neurotoxicity in ip dosed Swiss mouse to ED50 for anticonvulsant activity in ip dosed MES Swiss mouse model at 0.5 hrs; format: toxicity, organism-based; conditions: in vivo, read-out: Ratio TD50/ED50
[26] = Protective index, ratio of TD50 for neurotoxicity in ip dosed Swiss mouse to ED50 for anticonvulsant activity in ip dosed scPTZ Swiss mouse model at 0.5 hrs; format: toxicity, organism-based; conditions: in vivo, read-out: Ratio TD50/ED50
[27] = system: Mus musculus; assay: Anticonvulsant activity in Swiss mouse assessed as prolong latency to first seizure episode at 250 mg/kg pretreated for 0.5 hrs measured after 30 mins by subcutaneous pentylenetetrazole seizure test; format: functional, organism-based
[28] = system: Mus musculus; assay: Anticonvulsant activity in ip dosed Swiss mouse assessed as protection against maximal electroshock-induced seizures at 1 hr; format: functional
[29] = system: Mus musculus; assay: Anticonvulsant activity in ip dosed Swiss mouse assessed as reduction in clonic seizures at 1 hr by subcutaneous pentylenetetrazole seizure test; format: functional
[30] = Neurotoxicity in ip dosed Swiss mouse seizure model assessed as motor impairment pretreated for 1 hr measured within 60 s by chimney test; format: toxicity, organism-based; conditions: in vivo
[31] = Protective index, ratio of TD50 for neurotoxicity in ip dosed Swiss mouse to ED50 for anticonvulsant activity in ip dosed Swiss mouse 6 Hz psychomotor seizure model at 1 hr; format: toxicity, organism-based; conditions: in vivo, read-out: Ratio TD50/ED50
[32] = system: Mus musculus; assay: Anticonvulsant activity in Swiss mouse assessed as protection against maximal electroshock-induced seizures at 300 mg/kg, ip pretreated for 2 hrs; format: functional, organism-based
[33] = system: Mus musculus; assay: Anticonvulsant activity in ip dosed Swiss mouse assessed as prolong latency to first seizure episode pretreated for 0.5 hrs measured after 30 mins by subcutaneous pentylenetetrazole seizure test; format: functional, organism-based
[34] = system: Mus musculus; assay: Anticonvulsant activity in Swiss mouse assessed as prolong latency to first seizure episode at 60 mg/kg pretreated for 0.5 hrs measured after 30 mins by subcutaneous pentylenetetrazole seizure test; format: functional, organism-based
[35] = system: Mus musculus; assay: Potency index, ratio of ethosuximide ED50 to compound ED50 for anticonvulsant activity in ip dosed scPTZ Swiss mouse model at 0.25 hrs; format: functional
[36] = species on record: Rattus norvegicus; assay: Displacement of [3H]Batrachotoxinin from sodium channel site 2 in rat cerebral cortex at 100 uM after 60 mins by scintillation counting method; format: tissue-based
[37] = species on record: Rattus norvegicus; assay: Displacement of [3H]Batrachotoxinin from sodium channel site 2 in rat cerebral cortex at 500 uM after 60 mins by scintillation counting method; format: tissue-based
[38] = species on record: Rattus norvegicus; assay: Displacement of [3H]nitrendipine from calcium channel L-Type dihydropyridine site in rat cerebral cortex at 100 uM after 120 mins by scintillation counting method; format: tissue-based
[39] = species on record: Rattus norvegicus; assay: Displacement of [3H]nitrendipine from calcium channel L-Type dihydropyridine site in rat cerebral cortex at 500 uM after 120 mins by scintillation counting method; format: tissue-based
[40] = molecular target: T1, Glutamate NMDA receptor (Rattus norvegicus) (UniProt P35439+Q00959+Q00960+Q00961+Q62645+Q8VHN2+Q9R1M7); assay: Displacement of [3H]CGP-39653 from NMDA receptor in rat cerebral cortex at 100 uM after 60 mins by scintillation counting method; format: tissue-based
[41] = molecular target: T1, Glutamate NMDA receptor (Rattus norvegicus); assay: Displacement of [3H]CGP-39653 from NMDA receptor in rat cerebral cortex at 500 uM after 60 mins by scintillation counting method; format: tissue-based
[42] = system: Mus musculus; assay: Antinociceptive activity in ip dosed Swiss mouse assessed as reduction of formalin-induced licking at MES ED50 pretreated for 0.5 hrs measured during 1 to 5 mins; format: functional, organism-based
[43] = system: Mus musculus; assay: Antinociceptive activity in ip dosed Swiss mouse assessed as reduction of formalin-induced licking at MES ED50 pretreated for 0.5 hrs measured during 15 to 20 mins; format: functional; set-up: scale not given: the % may be the effect or the level left

CC1CC(=O)N(C(C)C(=O)N2CCN(c3cccc(Cl)c3)CC2)C1=O (stereo unspecified)
Activity [1]: Active | ED50 [2]: 121 mg/kg | selectivity ratio at 0.25 h [3]: 2.91 | selectivity ratio at 0.25 h [4]: 2.3 | selectivity ratio at 0.25 h [5]: 19.2 | ED50 [6]: 98.5 mg/kg | TD50 at 0.25 h [7]: 261 mg/kg | Activity [8]: 88% | Activity [9]: 74% | Activity [10]: 45% | selectivity ratio at 0.5 h [11]: 11.1 | Activity [12]: Active | Activity [13]: Active | Activity [14]: Active | Activity [15]: inactive | Activity [16]: inactive | Activity [17]: inactive | Activity [18]: Active | Activity [19]: Dose-dependent effect | ED50 [20]: 13.6 mg/kg | ED50 [21]: 89.7 mg/kg | ED50 [22]: 114 mg/kg | ED50 [23]: 24.4 mg/kg | TD50 at 0.5 h [24]: 270 mg/kg | selectivity ratio at 0.5 h [25]: 2.74 | selectivity ratio at 0.5 h [26]: 2.23

CCCC(CCC)C(=O)O
Activity [27]: Active

CC[C@@H](C(N)=O)N1CCCC1=O [LEVETIRACETAM]
ED50 [28]: > 500 mg/kg | ED50 [29]: > 500 mg/kg | TD50 at 1 h [30]: > 500 mg/kg | selectivity ratio at 1 h [31]: > 33.8

CC1CC(=O)N(C(C)C(=O)N2CCN(c3cccc(C(F)(F)F)c3)CC2)C1=O (stereo unspecified)
Activity [1]: Active | ED50 [2]: 51.6 mg/kg | selectivity ratio at 0.25 h [3]: 3.49 | selectivity ratio at 0.25 h [4]: 4.33 | selectivity ratio at 0.25 h [5]: 11.6 | ED50 [6]: 74.8 mg/kg | TD50 at 0.25 h [7]: 285 mg/kg | selectivity ratio at 0.5 h [11]: 12.7 | Activity [13]: Active | Activity [32]: Active | Activity [15]: inactive | Activity [18]: Active | Activity [33]: Dose-dependent effect | Activity [34]: Active | ED50 [20]: 24.6 mg/kg | ED50 [21]: 81.7 mg/kg | ED50 [22]: 65.7 mg/kg | ED50 [23]: 16.8 mg/kg | TD50 at 0.5 h [24]: 213 mg/kg | selectivity ratio at 0.5 h [25]: 2.85 | selectivity ratio at 0.5 h [26]: 4.13 | Ratio ED50 [35]: 2.2 | inhibition [36]: 29.9% | inhibition [37]: 76.3% | inhibition [38]: 38.1% | inhibition [39]: 78.5% | Activity [40]: inactive | Activity [41]: inactive | Activity [42]: inactive | Activity [43]: 84%
